Experimental data: patent publication US20220324817A1, “QUINAZOLINE PRODRUGS FOR THE TREATMENT OF VIRAL INFECTIONS AND FURTHER DISEASES” (Janssen Sciences Ireland Unlimited Company, priority 2019, published 2022)

How the values were obtained:
Type in all cases: in vitro ADME
[1] = tested on: P-glycoprotein (human MDR1); test: Permeability and efflux in vitro in MDCK-MDR1 cell line; conditions: dog, MDCK-MDR1 cells, in absence of GF120918
Method: (§1) Intrinsic clearance (CLint). CLint was determined in rat and human liver microsomes. Incubations were performed at 37° C., at a concentration of 1 μM of compound, and a microsomal protein concentration of 1 mg/mL. Serial samples were removed at intervals of up to 60 min and analyzed for the concentration of compound to determine its intrinsic clearance rate. Compound was incubated in rat and human hepatocytes (10^6 cells/mL) at 1 μM for 0, 10, 20, 40, 60 and 120 min. Serial samples were removed at intervals of up to 120 min and analyzed for the concentration of compound to determine its intrinsic clearance rate. Permeability and Efflux in vitro. The in vitro permeability and potential to be transported by P-glycoprotein (P-gp) was determined using an MDCK cell line transfected with human MDR1 (P-glycoprotein). […] Permeability in the A→B direction in absence and presence of GF120918 and in the B→A direction in absence of GF120918 was measured by monitoring the appearance of the test compound on the opposite side of the membrane using a specific LC-MS/MS method. The efflux ratio (B→*A-GF120918/A→B-GF120918) was calculated to determine whether the test compound was a P-gp substrate. […] Plasma stability is measured in rat and human plasma for 7 or 24 h at 37° C. […] Samples were analyzed by LC-MS/MS (without internal standard). […] Half-life (t1/2 in hours) is calculated from those data. […]

[2] = Intrinsic clearance in rat liver microsomes; conditions: 37° C., 1 μM compound, 1 mg/mL microsomal protein
Method: as §1

[3] = Intrinsic clearance in human liver microsomes; conditions: 37° C., 1 μM compound, 1 mg/mL microsomal protein
Method: as §1

| Papp A→B [1] | efflux ratio ([1]; read-out: Efflux ratio B -> A/A -> B) | microsomal CLint at 1 μM [2] | microsomal CLint at 1 μM [3] | Compound |
| --- | --- | --- | --- | --- |
| 8.22 ×10⁻⁶ cm/s | 4.5 | 109 µL/min/mg | 47 µL/min/mg | CCCC[C@H](CO)Nc1nc(NC(=O)OCC)nc2c(C)cccc12 [Compound 1, ethyl (R)-(4-((1-hydroxyhexan-2-yl)amino)-8-methylquinazolin-2-yl)carbamate] |
|  |  | 84 µL/min/mg |  | CCCC[C@H](COC(=O)C(C)C)Nc1nc(NC(=O)C(C)C)nc2c(C)cccc12 [Compound 2, (R)-2-((2-isobutyramido-8-methylquinazolin-4-yl)amino)hexyl isobutyrate] |
